Measurements published in BindingDB's records for doi:10.1021/jm990947f (University of Nottingham, 2000).

Legend:
[1] = Inhibition of IGF-I stimulated MCF-7 human breast tumor cell proliferation
[2] = Inhibition of IGF-II stimulated MCF-7 human breast tumor cell proliferation

## COc1cc(/C=C(\C#N)c2ccccn2)ccc1O
[1]
  IC50: 2.9 µM
[2]
  IC50: 3.2 µM
